Reference: patent US10251394B2, “Molecules having pesticidal utility, and intermediates, compositions, and processes, related thereto” (Dow AgroSciences LLC, priority 2016, dated 2019)

Key:
Type in all cases: in vivo
[1] = tested on: Beet Armyworm (Spodoptera exigua); test: Bioassay on Beet Armyworm (BAW), 128-well diet tray assay; conditions: Beet Armyworm, Table ABC, read-out: BAW rating
In short: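 Second-instar larvae (one to five per well) placed on artificial diet surface-treated with 50 μg/cm^2 test molecule in 90:10 acetone-water, dried, eight wells per molecule. Held at 25° C, 14:10 light-dark, five to seven days; percent mortality recorded per well and averaged across the eight wells.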

[2] = tested on: Cabbage Looper (Trichoplusia ni); test: Bioassay on Cabbage Looper (CL), 128-well diet tray assay; conditions: Cabbage Looper, Table ABC, read-out: CL rating
In short: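 Second-instar larvae, one to five per well, placed on artificial diet surface-treated with 50 μg/cm^2 compound in acetone-water, eight wells per compound. Held 5-7 days at 25° C, 14:10 light-dark; percent mortality per well averaged across wells.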

[3] = tested on: Yellow Fever Mosquito (Aedes aegypti); test: Bioassay on Yellow Fever Mosquito (YFM) larvae, 96-well plate; conditions: Table ABC
In short: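 About 1-day-old larvae in water with liver powder were added to wells holding compound from a 4000 ppm DMSO master diluted in 90:10 water:acetone. Plates covered and kept at room temperature for 3 days, then each well scored for mortality on a rating scale.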

Compound	pest or weed control at 50 µg/cm2 [1] [%]	pest or weed control at 50 µg/cm2 [2] [%]	YFM rating [3]
C[C@@H](NC(=O)c1ccc(/C(F)=C/C(c2ccc(C(F)(F)F)c(Cl)c2)C(F)(F)F)cc1C(F)(F)F)C(=O)NCC(F)(F)F (stereo partly drawn) [F205, 4-((Z)-3-(3-Chloro-4-(trifluoromethyl)phenyl)-1,4,4,4-tetrafluorobut-1-en-1-yl)-N—((R)-1-oxo-1-((2,2,2-trifluoroethyl)amino)propan-2-yl)-2-(trifluoromethyl)benzamide]	50 to 100	50 to 100	B (More than 0-Less than 80)
C[C@@H](NC(=O)c1ccc(/C(F)=C/C(c2ccc(C(F)(F)F)c(Br)c2)C(F)(F)F)cc1C(F)(F)F)C(=O)NCC(F)(F)F (stereo partly drawn) [F208, 4-((Z)-3-(3-Bromo-4-(trifluoromethyl)phenyl)-1,4,4,4-tetrafluorobut-1-en-1-yl)-N—((R)-1-oxo-1-((2,2,2-trifluoroethyl)amino)propan-2-yl)-2-(trifluoromethyl)benzamide]	50 to 100	50 to 100	A (80-100)
O=C(CNC(=O)c1ccc(/C(F)=C/C(c2ccc(C(F)(F)F)c(Br)c2)C(F)(F)F)cc1C(F)(F)F)NCC(F)(F)F (stereo not drawn) [F209, (Z)-4-(3-(3-Bromo-4-(trifluoromethyl)phenyl)-1,4,4,4-tetrafluorobut-1-en-1-yl)-N-(2-oxo-2-((2,2,2-trifluoroethyl)amino)ethyl)-2-(trifluoromethyl)benzamide]	50 to 100	50 to 100	A (80-100)
C[C@@H](NC(=O)c1ccc(/C(F)=C/C(c2ccc(C(F)(F)F)c(F)c2)C(F)(F)F)cc1C(F)(F)F)C(=O)NCC(F)(F)F (stereo partly drawn) [F210]	50 to 100	50 to 100	B (More than 0-Less than 80)
C[C@@H](NC(=O)c1ccc(/C(F)=C/C(c2cc(Cl)c(Cl)c(Cl)c2)C(F)(F)F)c2ccccc12)C(=O)NCC(F)(F)F (stereo partly drawn) [PF1, N—((R)-1-Oxo-1-((2,2,2-trifluoroethyl)amino)propan-2-yl)-4-((Z)-1,4,4,4-tetrafluoro-3-(3,4,5-trichlorophenyl)but-1-en-1-yl)-1-naphthamide]	50 to 100	50 to 100	A (80-100)
C[C@@H](NC(=O)c1ccc(/C(F)=C/C(c2ccc(Br)c(Br)c2)C(F)(F)F)cc1C(F)(F)F)C(=O)N(C)CC(F)(F)F (stereo partly drawn) [PF2, 4-((Z)-3-(3,4-Dibromophenyl)-1,4,4,4-tetrafluoro-but-1-en-1-yl)-N—((R)-1-(methyl(2,2,2-trifluoroethyl)amino)-1-oxopropan-2-yl)-2-(trifluoromethyl)benzamide]	50 to 100	50 to 100	A (80-100)
CN(CC(F)(F)F)C(=O)CNC(=O)c1ccc(/C(F)=C/C(c2ccc(Br)c(Br)c2)C(F)(F)F)cc1C(F)(F)F (stereo not drawn) [PF4, (Z)-4-(3-(3,4-Dibromophenyl)-1,4,4,4-tetrafluorobut-1-en-1-yl)-N-(2-(methyl(2,2,2-trifluoroethyl)amino]-2-oxoethyl)-2-(trifluoromethyl)benzamide]	50 to 100	50 to 100	A (80-100)
C[C@@H](NC(=O)c1ccc(/C(F)=C/C(c2ccc(F)c(Cl)c2)C(F)(F)F)cc1C(F)(F)F)C(=O)N(C)CC(F)(F)F (stereo partly drawn) [PF8, 4-((Z)-3-(3-Chloro-4-fluorophenyl)-1,4,4,4-tetrafluorobut-1-en-1-yl)-N—((R)-1-(methyl(2,2,2-trifluoroethyl)amino)-1-oxopropan-2-yl)-2-(trifluoromethyl)benzamide]	50 to 100	50 to 100	B (More than 0-Less than 80)
CN(CC(F)(F)F)C(=O)C1(NC(=O)c2ccc(/C(F)=C/C(c3ccc(F)c(Cl)c3)C(F)(F)F)cc2C(F)(F)F)CC1 (stereo not drawn) [PF10]	50 to 100	50 to 100	A (80-100)
Cc1cc(C(/C=C(\F)c2ccc(C(=O)NCC(=O)N(C)CC(F)(F)F)c(C(F)(F)F)c2)C(F)(F)F)cc(Cl)c1Cl (stereo not drawn) [PF12, (Z)-4-(3-(3,4-Dichloro-5-methylphenyl)-1,4,4,4-tetrafluoro-but-1-en-1-yl)-N-(2-(methyl(2,2,2-trifluoroethyl)amino)-2-oxoethyl)-2-(trifluoromethyl)benzamide]	50 to 100	50 to 100	B (More than 0-Less than 80)
Cc1cc(C(/C=C(\F)c2ccc(C(=O)N[C@H](C)C(=O)NCC(F)(F)F)c(C(F)(F)F)c2)C(F)(F)F)cc(Cl)c1Cl (stereo partly drawn) [PF13]	50 to 100	50 to 100	B (More than 0-Less than 80)
Cc1cc(C(/C=C(\F)c2ccc(C(=O)N[C@H](C)C(=O)N(C)CC(F)(F)F)c(C(F)(F)F)c2)C(F)(F)F)cc(Cl)c1Cl (stereo partly drawn) [PF14, 4-((Z)-3-(3,4-Dichloro-5-methylphenyl)-1,4,4,4-tetrafluorobut-1-en-1-yl)-N—((R)-1-(methyl(2,2,2-trifluoroethyl)amino)-1-oxopropan-2-yl)-2-(trifluoromethyl)benzamide]	50 to 100	50 to 100	A (80-100)
Cc1cc(C(/C=C(\F)c2ccc(C(=O)NC3(C(=O)NCC(F)(F)F)CC3)c(C(F)(F)F)c2)C(F)(F)F)cc(Cl)c1Cl (stereo not drawn) [PF15]	50 to 100	50 to 100	B (More than 0-Less than 80)
CN(CC(F)(F)F)C(=O)CNC(=O)c1ccc(/C(F)=C/C(c2ccc(Cl)c(F)c2)C(F)(F)F)cc1C(F)(F)F (stereo not drawn) [PF18, (Z)-4-(3-(4-Chloro-3-fluorophenyl)-1,4,4,4-tetrafluorobut-1-en-1-yl)-N-(2-(methyl(2,2,2-trifluoroethyl)amino)-2-oxoethyl)-2-(trifluoromethyl)benzamide]	50 to 100	50 to 100	B (More than 0-Less than 80)
C[C@@H](NC(=O)c1ccc(/C(F)=C/C(c2ccc(Cl)c(F)c2)C(F)(F)F)cc1C(F)(F)F)C(=O)NCC(F)(F)F (stereo partly drawn) [PF19, 4-((Z)-3-(4-Chloro-3-fluorophenyl)-1,4,4,4-tetrafluorobut-1-en-1-yl)-N—((R)-1-oxo-1-((2,2,2-trifluoroethyl)amino)propan-2-yl)-2-(trifluoromethyl)benzamide]	50 to 100	50 to 100	B (More than 0-Less than 80)
C[C@@H](NC(=O)c1ccc(/C(F)=C/C(c2ccc(Cl)c(F)c2)C(F)(F)F)cc1C(F)(F)F)C(=O)N(C)CC(F)(F)F (stereo partly drawn) [PF20, 4-((Z)-3-(4-Chloro-3-fluorophenyl)-1,4,4,4-tetrafluorobut-1-en-1-yl)-N—((R)-1-(methyl(2,2,2-trifluoroethyl)amino)-1-oxopropan-2-yl)-2-(trifluoromethyl)benzamide]	50 to 100	50 to 100	B (More than 0-Less than 80)
CN(CC(F)(F)F)C(=O)C1(NC(=O)c2ccc(/C(F)=C/C(c3ccc(Cl)c(F)c3)C(F)(F)F)cc2C(F)(F)F)CC1 (stereo not drawn) [PF22, (Z)-4-(3-(4-Chloro-3-fluorophenyl)-1,4,4,4-tetrafluorobut-1-en-1-yl)-N-(1-(methyl(2,2,2-trifluoroethyl)carbamoyl)cyclopropyl)-2-(trifluoromethyl)benzamide]	50 to 100	50 to 100	B (More than 0-Less than 80)
C[C@@H](NC(=O)c1ccc(/C(F)=C/C(c2ccc(Br)c(Cl)c2)C(F)(F)F)cc1C(F)(F)F)C(=O)NCC(F)(F)F (stereo partly drawn) [PF25]	50 to 100	50 to 100	B (More than 0-Less than 80)
C[C@@H](NC(=O)c1ccc(/C(F)=C/C(c2cc(Cl)cc(Br)c2)C(F)(F)F)cc1C(F)(F)F)C(=O)N(C)CC(F)(F)F (stereo partly drawn) [PF31, 4-((Z)-3-(3-Bromo-5-chlorophenyl)-1,4,4,4-tetrafluorobut-1-en-1-yl)-N—((R)-1-(methyl(2,2,2-trifluoroethyl)amino)-1-oxopropan-2-yl)-2-(trifluoromethyl)benzamide]	50 to 100	50 to 100	B (More than 0-Less than 80)
CN(CC(F)(F)F)C(=O)C1(NC(=O)c2ccc(/C(F)=C/C(c3cc(Cl)cc(Br)c3)C(F)(F)F)cc2C(F)(F)F)CC1 (stereo not drawn) [PF33, (Z)-4-(3-(3-Bromo-5-chlorophenyl)-1,4,4,4-tetrafluorobut-1-en-1-yl)-N-(1-(methyl(2,2,2-trifluoroethyl)carbamoyl)cyclopropyl)-2-(trifluoromethyl)benzamide]	50 to 100	50 to 100	B (More than 0-Less than 80)
CN(CC(F)(F)F)C(=O)CNC(=O)c1ccc(/C(F)=C/C(c2ccc(Cl)c(Br)c2)C(F)(F)F)cc1C(F)(F)F (stereo not drawn) [PF35, (Z)-4-(3-(3-Bromo-4-chlorophenyl)-1,4,4,4-tetrafluorobut-1-en-1-yl)-N-(2-(methyl(2,2,2-trifluoroethyl)amino)-2-oxoethyl)-2-(trifluoromethyl)benzamide]	50 to 100	50 to 100	B (More than 0-Less than 80)
C[C@@H](NC(=O)c1ccc(/C(F)=C/C(c2ccc(Cl)c(Br)c2)C(F)(F)F)cc1C(F)(F)F)C(=O)N(C)CC(F)(F)F (stereo partly drawn) [PF37, 4-((Z)-3-(3-Bromo-4-chlorophenyl)-1,4,4,4-tetrafluorobut-1-en-1-yl)-N—((R)-1-(methyl(2,2,2-trifluoroethyl)amino)-1-oxopropan-2-yl)-2-(trifluoromethyl)benzamide]	50 to 100	50 to 100	B (More than 0-Less than 80)
